# Laboratory results published in PubChem BioAssay AID652265 (Sanford-Burnham Center for Chemical Genomics, 2013).
# pIC50: −log10 of the molar value. Calls of active or inactive are those of the source.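 How the source made its calls: active means compounds whose half-maximal inhibitory concentration in the worm GFP to RFP ratio test is 5 micromolar or lower; inactive means the rest.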
# Tested on: C. elegans VP596 Pgst-4::GFP/RFP ratio, acrylamide, 24 h
# Assay: potency of C. elegans SKN-1 blocker analogs – whole organism, GFP/RFP fluorescence ratio, round 2, SAR follow-up (AID 652265)
IC50,pIC50,Structure (SMILES)
6.73 µM (inactive),,CCOc1cc(CNCC2CC2)cc(Cl)c1OCc1ccc(Cl)cc1
,6.37,CCOc1cc(CNC2CCCC2)cc(Cl)c1OCc1ccc(Br)cc1
,6.37,CCOc1cc(CN(C)C2CCCC2)cc(Cl)c1OCc1ccc(Cl)cc1
8.68 µM (inactive),,CCCNCc1cc(Cl)c(OCc2ccc(Cl)cc2)c(OCC)c1
8.14 µM (inactive),,C#CCNCc1cc(Cl)c(OCc2ccc(Cl)cc2)c(OCC)c1
,5.94,Cc1cc(CNC2CCCC2)cc(C)c1OCc1ccc(Cl)cc1
,5.76,CCOc1cc(CN2CCOCC2)cc(Cl)c1OCc1ccc(Cl)cc1
,6.48,COc1cc(CNC2CCCC2)cc(Cl)c1OCc1ccc(Cl)cc1
> 64 µM (inactive),,CCOc1cc(CN(C(C)=O)C2CCCC2)cc(Cl)c1OCc1ccc(Cl)cc1
,6.06,CCOc1cc(CNC2CCCC2)cc(Cl)c1OCc1ccc(Cl)cc1F
,5.47,CCOc1cc(CN2CCN(C)CC2)cc(Cl)c1OCc1ccc(Cl)cc1
6.01 µM (inactive),,CCOc1cc(CN2CCN(C)CC2)cc(Cl)c1OCc1ccc(F)cc1
21.4 µM (inactive),,CCOc1cc(CN2CCCC2)cc(Cl)c1OCc1ccc(F)cc1
8.89 µM (inactive),,CCOc1cc(CN2CCOCC2)cc(Cl)c1OCc1ccc(F)cc1
,6.29,CCOc1cc(CNC2CC2)cc(Cl)c1OCc1ccc(Cl)cc1F
,6.31,CCOc1cc(CN2CCCCC2)cc(Cl)c1OCc1ccc(Cl)cc1
,6.64,CCOc1cc(CNC2CC2)cc(Cl)c1OCc1ccc(Br)cc1
,6.40,CCOc1cc(CNC2CCCC2)cc(Cl)c1OCc1ccc(C#N)cc1
,6.29,CCOc1cc(CNC2CC2)cc(Cl)c1OCc1ccc(Cl)cc1
,6.11,COc1cc(CNC2CCCC2)cc(Br)c1OCc1ccc(Cl)cc1
,6.36,CCOc1cc(CN2CCCCC2)cc(Cl)c1OCc1ccc(F)cc1
> 64 µM (inactive),,CCOc1cc(CNC)cc(Cl)c1OCc1ccc(Cl)cc1
,5.91,COc1cc(CNC2CCCC2)cc(F)c1OCc1ccc(Cl)cc1
,5.40,CCOc1cc(CN2CCCC2)cc(Cl)c1OCc1ccc(Cl)cc1
12.3 µM (inactive),,C=CCNCc1cc(Cl)c(OCc2ccc(Cl)cc2)c(OCC)c1
,5.81,CCOc1cc(CNC2CC2)cc(Cl)c1OCc1ccc(C#N)cc1
,6.03,Clc1ccc(COc2c(Cl)cc(CNC3CCCC3)cc2Cl)cc1
